Results on 4 molecules are retold here after patent US9238684B2, “SPANX-B polypeptides and their use” (The United States of America, as represented by the …, priority 2009, dated 2016).

In one assay the test system is OVCAR3 cells. Description: CTL 51Cr release assay on OVCAR3. It is filed as cell-based, human. The note with it: HLA-A2-positive, SPANX-B-negative target; FIG. 6D. Here is the method:
(§1) CTL assay and HLA blocking experiments: Tumor cell lines (target cells, 2×10^6) were incubated in 200 μL of fetal bovine serum (FBS) with 200 μCi of Na2^51CrO4 (PerkinElmer, Billerica, Mass.) for 2 hours at 37° C. Cells were washed with RPMI three times and resuspended in cRPMI with 10% FBS at 1×10^5 cells/mL. CTL assay was performed in triplicate in 96-well round bottom plates with 1×10^4/well ^51Cr-labeled target cells. The target cells were co-cultured at indicated ratios with effector cells (peptide-specific CD8^+ T cells) for 6 hours. The specific ^51Cr-release is calculated using formula: ((test sample release−spontaneous release)/(maximum release−spontaneous release))×100). Maximum release is for the target cells alone lysed with 2% Triton X-100.

The next assay has as its system UACC1273 melanoma cells. Briefly: CTL 6-hour 51Cr release assay on UACC1273. Type of assay: cell-based, human. The settings on record: SPANX-B-expressing, HLA-A2-positive target; FIGS. 6A-C. Here is the method:
as §1

The test system of assay [1] is murine anti-SPANX-B antibody. Description: ELISA on peptide-coated plates with murine anti-SPANX-B antibody. Type of assay: binding. The settings on record: Ab from mice DNA immunized with SPANX-B-expressing plasmid; FIG. 1B. How it is done: FIGS. 1A-1F are digital images, a graph and a schematic diagram illustrating the specificity of antibody and expression of SPANX-B in human immortalized tumor cell lines. FIG. 1A is a digital image showing ANEA-I0117 antibody recognized SPANX-B expressed in mouse erythroleukemia RL5 cells. Western blotting results are shown with ANEA-I0117 anti-SPANX-B antibody on lysates of RL5 cells (2 μl, 5 μl and 10 μl, respectively) transiently transduced with plasmid expressing SPANX-B (SPANX-B). Control lysates were made from untransduced parental RL5 cells (Control). FIG. 1B is a graph showing murine anti-SPANX-B antibody, which was generated from mice DNA immunized with plasmid expressing SPANX-B, recognized unique SPANX-B-specific insert of SPANX-B (encoded in Pep-G1 and Pep-2 peptides), ELISA assay on plates coated with various peptides that are depicted in FIG. 1C. […] FIG. 1D is a digital image showing the expression of SPANX-B protein evaluated by Western blotting with ANEA-I0117 Ab (1:5000) in lysates of cell lines, such as HEK293 (HEK), Jurkat, CRL 7002, UACC1273, 938 Mel, CCRF-CEM (CEM), and normal human donor PBMC (upper panel). The blot was stripped and hybridized with anti-actin antibody (lower panel). FIGS. 1E and 1F are digital images obtained from an immunohistochemistry and immunofluorescent assay, respectively, of melanoma (UACC1273) and ovarian carcinoma (2008 and OVCAR3) cell lines. The cells were stained with ANEA-I0117 Ab (right and bottom panels in FIG. 1E and FIG. 1F, respectively); and control IgG (left and upper panels in FIG. 1E and FIG. 1F, respectively).
SPANX-B can be often found in the list of highly expressed genes in microarray study of human tumors, including hematological malignancies and breast cancer (see, for example, Minn et al., Nature 436(7050):518-24, 2005). To confirm this, expression was tested using two antibodies, a rabbit 3ANEA Ab and mouse SPANX-B Ab. […] The second SPANX-B Ab was produced from mice DNA immunized with SPANX-B-expressing plasmid. […] In contrast, it reacted with a second peptide Pep-2 that only represented unique for SPANX-B insert of Pep-G1 (FIGS. 1B and C).
A general note: In an ELISA, binding on a coated surface is turned into a signal by an enzyme label.

Assay [2] deals with primary human melanoma cells. Description: CTL 51Cr release assay on primary human melanoma cells. It is filed as cell-based. The note with it: for lysis of HLA-A2-expressing primary melanoma tumors by CD8+ lines generated to the antigen: Tc526, Tc624 and Tc2492; for lysis of HLA-A2-negative primary melanoma tumors by CD8+ lines generated to the antigen: Tc2547 and Tc938, FIG. 6E. How it is done: as §1

The next assay deals with SPANX-B. Briefly: DNA immunization of mice, serum ELISA on peptide-coated plates. The note with it: plates coated with peptide 5 μg/ml; FIG. 7. It is filed as in vivo. How it is done: Mice were intradermally immunized twice with 25 μg plasmid DNA constructs including MIP-3α-SPANX-B. Sera were tested for SPANX-B antibodies by ELISA assay in 96-well plates coated with the indicated peptides (5 μg/ml). […] The other was near the N-terminus, encoded by Pep-G1 (SEQ ID NO: 14) and Pep-2 (SEQ ID NO: 2) and Pep-3 (SEQ ID NO: 3).

The test system of assay [3] is SPANX-B-specific CD8^+ T cell lines. Description: IFNγ secretion (ELISA) by CD8+ T cell lines stimulated with antigen-pulsed autologous DCs. Type of assay: cell-based, human. The note with it: for IFNγ secretion by SPANX-B-specific CD8+ T cells on stimulation with pulsed DCs: irradiated autologous DCs, lines generated with SPANX-B protein, FIG. 5A.
In the next assay the test system is HEK293 cells. Description: CTL 51Cr release assay on HEK293 cells pulsed with Pep-2. Type of assay: cell-based, human. The note with it: FIGS. 6A-C; for lysis of HLA-A2-expressing HEK293 cells pulsed with Pep-2 by CD8+ T cell lines generated to the antigen: HEK-A2, pulsed with 1 μg/ml Pep-2; for lysis of HLA-A2-negative parental HEK293 cells by CD8+ T cell lines generated to the antigen: HEK. How it is done: as §1

The subject of another assay is HLA-DR. Description: HLA blocking of Pep-9-induced CD4+ T cell activation. It is filed as cell-based, human. How it is done:
The MHC […] inhibition assays: HLA specific mAbs or control isotype matched IgG were preincubated with peptide-pulsed DCs at concentration of 10 μg/mL for one hour at 4° C. Cells were washed with PBS, irradiated at 4500 rad and mixed with T cells at indicated ratios. To block HLA class I expression, tumor cells lines were pretreated with 10 μg/mL of anti-HLA-A,B,C antibodies (BD Pharmingen, San Jose, Calif.) for one hour at 4° C. Cells were washed with PBS and labeled with ^51Cr as indicated above. IFNγ production was determined by ELISA after 48 hour incubation as described (Schiavo et al., Blood 107(12):4597-605, 2006).
Next, to characterize HLA specificity, the CD4^+ T cell lines were stimulated with autologous DCs pulsed with Pep-9 in the presence of antibody that blocked HLA-DR, or HLA-DQ, or HLA-DP molecules. The stimulation of the SPANX-B-specific CD4^+ T cells was not affected by the presence of control antibody or antibodies that block HLA-DQ, or HLA-DP, or anti-MHC class I (FIGS. 4 A-C).

Assay [4] concerns SPANX-B-specific CD4^+ T cell lines. Briefly: IFNγ secretion (ELISA) by CD4+ T cell lines stimulated with antigen-pulsed autologous DCs. Type of assay: cell-based, human. How it is done:
T cell stimulation: To generate CD4^+ T cell lines, CD4^+ T cells (2×10^6) were stimulated with autologous DC pulsed with either SPANX-B protein (2 μg/mL), or with SPANX-B peptides (10 μg/mL) in the presence of IL-2 (20 U/mL) for seven days. T cells were re-stimulated once every week two times. To generate CD8^+ CTL lines, 2×10^6 CD8^+ T cells were stimulated with autologous DC pulsed with either SPANX-B protein (2 μg/mL) and SPANX-B peptides (10 μg/mL) in the presence of IL-2 (20 U/mL) and IL-15 (10 ng/mL) for seven days. T cells were weekly restimulated with peptide-loaded DCs for several times. To test antigen-specific activity of CD4^+ T cell lines, all experiments were performed in triplicates in 96-well plates with 1×10^5 CD4^+ T cells/well. […] T cell activity was judged by IFNγ secretion in culture supernatants by ELISA after 48 hours incubation (see below and Schiavo et al., Blood 107(12):4597-605, 2006). For most experiments, unless specified, 1:5 Target:Effector ratio was used.
Detection of IFNγ by ELISA: ELISA was performed as described elsewhere (Schiavo et al., Blood 107(12):4597-605, 2006). Briefly, 96-well flat-bottom plates were coated with 2 μg/mL of anti-human IFNγ antibody (BD pharmingen, San Jose, Calif.) to capture secreted IFNγ. The captured IFNγ was detected with 0.5 μg/mL biotin-conjugated mouse anti-human IFNγ antibody and streptavidin-HRP (BD pharmingen, San Jose, Calif.). The assay was visualized with TMB peroxidase solution B (KPL, Gaithersburg, Md.) and read at OD450.

“Also recorded” adds a separate entry of the source.

On to EANEANKTM (Synthetic peptide Pep-2), for which the “lysis of OVCAR3 cells by CD8+ T cells, with or without Pep-2 pulsing” value in the assay with OVCAR3 cells is on record as “could not lyse HLA-A2-positive OVCAR3 cells that did not express SPANX-B, unless pulsed with Pep-2”. For the same molecule, the “lysis of UACC1273 melanoma cells by CD8+ T cell lines generated to the antigen” value (shortened to “lysis of UACC1273 melanoma cells”) in the assay with UACC1273 melanoma cells is “killed UACC1273 melanoma cells”. Further, in assay [1], the “recognition of peptide by mouse SPANX-B Ab (ELISA)” value is “but not other region-specific peptides; also recorded: reacted with”. Also, in [2], the “lysis of HLA-A2-expressing primary melanoma tumors by CD8+ lines generated to the antigen” value is “recognized and lysed”; the “lysis of HLA-A2-negative primary melanoma tumors by CD8+ lines generated to the antigen” value was “not affected”. In the assay on SPANX-B, the “B cell epitope recognized by sera of immunized mice (ELISA)” value is given as “Immunodominant B cell epitopes”. In [3], the “recognition of SPANX-B protein-pretreated DCs by CD8+ T cells generated with peptide-pulsed DCs” value is given as “also recognized SPANX-B protein-pretreated DCs” and the “IFNγ secretion by SPANX-B-specific CD8+ T cells on stimulation with pulsed DCs” value is “secreted IFNγ”. In addition, in the assay on HEK293 cells, the “lysis of HLA-A2-expressing HEK293 cells pulsed with Pep-2 by CD8+ T cell lines generated to the antigen” value is given as “lysed HLA-A2-expressing HEK293 cells that were pulsed with Pep-2” and the “lysis of HLA-A2-negative parental HEK293 cells by CD8+ T cell lines generated to the antigen” value is recorded as “did not kill”.
Turning to LVVRYRRNV (Synthetic peptide Pep-4), the “lysis of UACC1273 melanoma cells” value with UACC1273 melanoma cells was “killed UACC1273 melanoma cells”. Moreover, in assay [2], the “lysis of HLA-A2-expressing primary melanoma tumors by CD8+ lines generated to the antigen” value was “recognized and lysed”; the “lysis of HLA-A2-negative primary melanoma tumors by CD8+ lines generated to the antigen” value is given as “not affected”. For the same molecule, in [3], the “recognition of SPANX-B protein-pretreated DCs by CD8+ T cells generated with peptide-pulsed DCs” value is “also recognized SPANX-B protein-pretreated DCs” and the “IFNγ secretion by SPANX-B-specific CD8+ T cells on stimulation with pulsed DCs” value is listed as “secreted IFNγ”. Moreover, in the assay on HEK293 cells, the “lysis of HLA-A2-expressing HEK293 cells pulsed with Pep-2 by CD8+ T cell lines generated to the antigen” value is given as “lysed HLA-A2-expressing HEK293 cells that were pulsed with Pep-2” and the “lysis of HLA-A2-negative parental HEK293 cells by CD8+ T cell lines generated to the antigen” value is recorded as “did not kill”.
On to RSVPCESNEANE (Synthetic peptide Pep-9), for which, in the assay with HLA-DR, the “HLA restriction of recognition by human CD4+ T cells” value was “HLA-DR-restricted fashion”. Besides, the “IFNγ secretion by SPANX-B-specific CD4+ T cell lines, fine mapping of the epitope” value in [4] (autologous DCs pulsed with peptide, lines generated to SPANX-B protein, Pep-1 or Pep-G1, FIG. 3D) is “able to activate the SPANX-B-specific CD4^+ T cell lines”.

B1: SPANX-B protein: Recombinant SPANX-B protein fused with maltose binding protein (MBP), produced and purified from E. coli (protein)
chain: MGQQSSVRRLKRSVPCESNEANEANEANKTMPETPTGDSDPQPAPKKMKTSESSTILVVRYRRNVKRTSPEELLNDHARENRINPDQMEEEEFIEITTERPKK
Take B1: the “lysis of UACC1273 melanoma cells” value with UACC1273 melanoma cells is “killed UACC1273 melanoma cells”. Also, in [2], the “lysis of HLA-A2-expressing primary melanoma tumors by CD8+ lines generated to the antigen” value was “recognized and lysed”; the “lysis of HLA-A2-negative primary melanoma tumors by CD8+ lines generated to the antigen” value is “not affected”. Also, the “IFNγ secretion by CD4+ T cell lines on stimulation with pulsed DCs” value in [4] (CD4+ T cell lines generated with SPANX-B protein-treated autologous DCs, FIGS. 3A-C) was “specifically recognized SPANX-B-treated DCs”. The “SPANX-B-specific CD8+ T cell lines generated, donors” value in [3] (HLA-A2-positive peripheral blood CD8+ T cells, DCs incubated with SPANX-B protein) is on record as 3/3. In addition, the “IFNγ secretion by SPANX-B-specific CD8+ T cells on stimulation with pulsed DCs” value in assay [3] is reported as “secreted IFNγ”. In the assay on HEK293 cells, the “lysis of HLA-A2-expressing HEK293 cells pulsed with Pep-2 by CD8+ T cell lines generated to the antigen” value is listed as “lysed HLA-A2-expressing HEK293 cells that were pulsed with Pep-2” and the “lysis of HLA-A2-negative parental HEK293 cells by CD8+ T cell lines generated to the antigen” value is “did not kill”.
